# Literature values in patent US11958977B2, “Fluorescently labeled polysaccharide, preparation method therefor, and use thereof” (SUZHOU BAIYUAN GENT CO., LTD., priority 2018, dated 2024).
# Where a name gives a salt, the structure may show the parent alone.
# Conditions: Solvent: 0.1M H2SO4
smiles,measurement,value
C=C[C@H]1C[N@@]2CC[C@H]1C[C@H]2[C@H](O)c1ccnc2ccc(OC)cc12 [quinine sulfate],Quantum yield of the reference compound,0.56
